Literature values, collected in US20100267730A1, “NOVEL COMPOUNDS” (priority 2008, published 2010).

Tests used:
[1] = system: orexin receptors; settings: central administration at the onset of the normal sleep period, rat sleep/EEG
[2] = system: freely-feeding rats; settings: central administration, 4 hour time period

## orexin-A: ligand (agonist) of the orexin receptors; human Orexin-A amino acid sequence SEQ ID NO: 1 (EPLPDCCRQKTCSCRLYELLHGAGNHAAGILTL; Homo sapien)
[1]
  effect on arousal: dose-related increase in arousal
[2]
  increase in food intake over control rats receiving vehicle: approximately four-fold
